{
  "source": "paper PMC11883961",
  "about": "(RSC Chemical Biology, 2025)",
  "key": {"[1]": {"target": "FKBP12-LgBiT and MAPRE1 (N183-Y268)-SmBiT in HEK293T cells (Homo sapiens, UniProt P62942+Q15691)", "sequence (P62942 whole entry)": "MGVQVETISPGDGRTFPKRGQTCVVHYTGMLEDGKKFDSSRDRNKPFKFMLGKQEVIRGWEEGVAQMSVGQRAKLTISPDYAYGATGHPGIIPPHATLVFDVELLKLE", "sequence (Q15691 183-268)": "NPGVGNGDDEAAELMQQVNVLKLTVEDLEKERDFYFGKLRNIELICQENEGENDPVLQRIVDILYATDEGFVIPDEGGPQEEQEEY", "assay": "NanoBiT FKBP12-MAPRE1 recruitment experiments", "assay_type": "cell-based"}, "[2]": {"target": "FKBP12 ligand pocket (FKBP12-LgBiT/MAPRE1-SmBiT in HEK293T cells) (Homo sapiens, UniProt P62942+Q15691)", "sequence (P62942 whole entry)": "as the sequence (P62942 whole entry) above", "sequence (Q15691 183-268)": "as the sequence (Q15691 183-268) above", "assay": "NanoBiT FKBP ligand competition experiments", "assay_type": "cell-based", "conditions": "80 μM competitor; recruiters up to 20 μM"}},
  "data": [
    {"smiles": "CO[C@H]1C[C@@H]2CC[C@@H](C)[C@@](O)(O2)C(=O)C(=O)N2CCCC[C@H]2C(=O)O[C@H]([C@H](C)C[C@@H]2CC[C@@H](O)[C@H](OC)C2)CC(=O)[C@H](C)/C=C(\\C)[C@@H](O)[C@@H](OC)C(=O)[C@H](C)C[C@H](C)/C=C/C=C/C=C/1C", "note": "[Rapamycin]", "values": [
      {"measurement": "recruitment of MAPRE1 to FKBP12 in cells", "setting": "[1]", "value": "neither of which measurably recruits MAPRE1 to FKBP12"},
      {"measurement": "ability to outcompete glue recruiters for FKBP12", "setting": "[2]", "value": "able to outcompete even the highest dose of all glue recruiters tested"}
    ]}
  ]
}
